Results from BigSolDB 2.1.

SMILES: CCOc1ccccc1C(N)=O
- solubility (mole fraction) (in acetonitrile, 293.15 K): 0.00709
- solubility (mole fraction) (in acetonitrile, 298.15 K): 0.0091
- solubility (mole fraction) (in acetonitrile, 303.15 K): 0.0123
- solubility (mole fraction) (in acetonitrile, 308.15 K): 0.0167
- solubility (mole fraction) (in acetonitrile, 313.15 K): 0.022
- solubility (mole fraction) (in acetonitrile, 318.15 K): 0.0285
- solubility (mole fraction) (in acetonitrile, 323.15 K): 0.0377
- solubility (mole fraction) (in ethanol, 293.15 K): 0.0121
- solubility (mole fraction) (in ethanol, 298.15 K): 0.0162
- solubility (mole fraction) (in ethanol, 303.15 K): 0.0198
- solubility (mole fraction) (in ethanol, 308.15 K): 0.0252
- solubility (mole fraction) (in ethanol, 313.15 K): 0.0313
- solubility (mole fraction) (in ethanol, 318.15 K): 0.0392
- solubility (mole fraction) (in ethanol, 323.15 K): 0.0472
- solubility (mole fraction) (in isopropanol, 293.15 K): 0.0097
- solubility (mole fraction) (in isopropanol, 298.15 K): 0.0125
- solubility (mole fraction) (in isopropanol, 303.15 K): 0.0155
- solubility (mole fraction) (in isopropanol, 308.15 K): 0.0189
- solubility (mole fraction) (in isopropanol, 313.15 K): 0.024
- solubility (mole fraction) (in isopropanol, 318.15 K): 0.0304
- solubility (mole fraction) (in isopropanol, 323.15 K): 0.0391
- solubility (mole fraction) (in methanol, 293.15 K): 0.016
- solubility (mole fraction) (in methanol, 298.15 K): 0.02
- solubility (mole fraction) (in methanol, 303.15 K): 0.0252
- solubility (mole fraction) (in methanol, 308.15 K): 0.0306
- solubility (mole fraction) (in methanol, 313.15 K): 0.0392
- solubility (mole fraction) (in methanol, 318.15 K): 0.0484
- solubility (mole fraction) (in methanol, 323.15 K): 0.0596
